Data as given in patent US20230009608A1, “GRK2 INHIBITORS AND USES THEREOF” (Cygnal Therapeutics, Inc., priority 2020, published 2023).
Read-outs that look alike come from different tables or passages of the source.

Target: T1, GRK2 (Homo sapiens, UniProt P25098)
T1 construct: purchased SignalChem A14-10G
T1 sequence (P25098 1-689): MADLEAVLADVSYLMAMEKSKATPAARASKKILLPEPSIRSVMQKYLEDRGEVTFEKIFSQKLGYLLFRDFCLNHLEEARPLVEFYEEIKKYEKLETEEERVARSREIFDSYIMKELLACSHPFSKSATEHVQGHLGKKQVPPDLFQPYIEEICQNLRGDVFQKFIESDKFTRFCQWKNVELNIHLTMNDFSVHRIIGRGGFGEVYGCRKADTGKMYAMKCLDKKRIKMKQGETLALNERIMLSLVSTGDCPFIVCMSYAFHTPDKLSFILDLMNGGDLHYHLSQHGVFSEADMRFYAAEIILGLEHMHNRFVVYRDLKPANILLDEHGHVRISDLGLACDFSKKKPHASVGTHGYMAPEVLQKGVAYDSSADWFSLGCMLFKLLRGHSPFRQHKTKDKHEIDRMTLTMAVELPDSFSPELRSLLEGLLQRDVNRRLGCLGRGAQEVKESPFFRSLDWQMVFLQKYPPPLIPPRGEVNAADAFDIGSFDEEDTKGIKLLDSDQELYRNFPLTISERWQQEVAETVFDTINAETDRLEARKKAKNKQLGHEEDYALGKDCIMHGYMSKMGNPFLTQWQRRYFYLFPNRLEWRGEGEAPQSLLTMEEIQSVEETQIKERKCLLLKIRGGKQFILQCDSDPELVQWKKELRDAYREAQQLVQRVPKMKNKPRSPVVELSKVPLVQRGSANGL
Assay: ADPGlo GRK2 Inhibition Assay (Example 8)
Format: biochemical
Description: HTS was performed using 1 μM compound.
Compounds were dissolved in 100% DMSO, serially diluted tree-fold from 100 μM concentration to 46 nM and transferred (50 nL) into assay ready plate.
Materials: GRK2 was purchased from SignalChem (Cat #A14-10G, Lot #X^645-3). Substrate GRKtide was from SignalChem (Cat #G46-58, Lot #R339-6). ADP-Glo Kinase Assay from Promega (Cat #V9102). Assay buffer consisted of 25 mMv HEPES (pH7.5), 10 mMv MgCl2, 0.01% Tween-20, 1 mM DDT. 384-well white plates were from Greiner […] (Item #784075).
HTS protocol: Take 384 well plate with 50 nL of compound in columns 3-22/DMSO solution 1-2,23-24. Add 2.5 μL assay buffer to columns 23 and 24 using Thermo Scientific Multidrop Combi Dispenser. Add 2.5 μL of 2× enzyme solution (15 nM in 1× assay buffer) using Thermo Scientific Multidrop Combi Reagent Dispenser to all columns except of 23 and 24. Incubate for 15 minutes. Fill plate with 2.5 μL of 2× substrate mix (20 μM ATP and 0.6 mg/nt GRKtide in Ix assay buffer) using Thermo Scientific Multidrop Combi Reagent Dispenser. Spin 15 seconds at 1000 rpm and incubate for 180 min at room temperature. Add 5 μL ADP-Glo reagent to all the wells. Spin 15 seconds at 1000 rpm and incubate for 40 min at room temperature. Add 10 μL Detection solution to all the wells. Incubate for 30 min at room temperature. Read plate in Luminescent modeon BMG PheraStar FSX (gain=3600).
Data Analysis: Data were analyzed in GraphPad Prism 8.0.2. Each HTS plate contains compounds in columns 3-22, controls (enzyme, no compound) in columns 1 and 2, and blanks (no enzyme) in columns 23 and 24. HTS percent inhibition was calculated for each compound from the signal in luminescence units and the mean of the plate controls and the mean of the plate blanks using the following equation: % Inhibition=100*(1−((signal-blank mean)/(control mean-blank mean))). At the final stage of data processing, we obtain dose-response curves, tables and SDF-files with the results of screening for each substance.

[1] = 7.5 nM GRK2, 10 μM ATP, ADP-Glo, read-out: GRK2 IC50 (nM) (Example 8)
[2] = ADPGlo GRK2 enzyme assay, read-out: A: Enzymatic GRK2: IC50 (nM) (Example 8)
[3] = Enzyme Assay A, ADPGlo (Example 8), read-out: A: Enzymatic GRK2: IC50 (nM) (Example 8)

Row | SMILES | IC50 [2] | also measured
1 | Cn1c(CNc2cccc(C(=O)NCc3ccc4nccn4c3)c2)nnc1-c1ccncn1 [compound 40] | – | IC50 [1]: 1.7 nM
2 | CN1CCN(c2ncccc2CNC(=O)c2cccc(NCc3nnc(-c4ccncn4)n3C)c2)CC1 | 289 nM | –
3 | Cc1nc2c(c(C)c1CNC(=O)c1cccc(NCc3nnc(-c4ccncn4)n3C)c1)c(=O)[nH]n2C | 181 nM | –
4 | Cn1c(CNc2cccc(C(=O)NCC3(c4ccccn4)CC3)c2)nnc1-c1ccncn1 | 526 nM | –
5 | CC(O)C(NC(=O)c1cccc(NCc2nnc(-c3ccncn3)n2C)c1)c1ccccc1F (stereo not drawn) | 209 nM | –
6 | Cn1c(CNc2cccc(C(=O)N[C@]3(c4ccccc4F)C[C@H](O)C3)c2)nnc1-c1ccncn1 | 423 nM | –
7 | Cn1c(CNc2cccc(C(=O)NC(CO)c3cc(F)ccc3F)c2)nnc1-c1ccncn1 (stereo not drawn) [compound 62] | – | IC50 [1]: 10 nM
8 | Cn1c(CNc2cccc(C(=O)N[C@H]3COCc4ccccc43)c2)nnc1-c1ccncc1 | – | IC50 [3]: 100 nM
9 | Cn1c(CNc2cccc(C(=O)NC3CCCOc4ccccc43)c2)nnc1-c1ccncn1 (stereo not drawn) | – | IC50 [3]: 92 nM
10 | Cn1cccc1CNC(=O)c1cccc(NCc2nnc(-c3ccncn3)n2C)c1 [compound 59] | – | IC50 [1]: 9.5 nM
11 | Cn1c(CNc2cccc(C(=O)NC(CO)c3ccccn3)c2)nnc1-c1ccncn1 (stereo not drawn) | 177 nM | –
12 | Cc1cccc2ncc(CNC(=O)c3cccc(NCc4nnc(-c5ccncn5)n4C)c3)n12 [compound 37] | – | IC50 [1]: 0.79 nM
13 | Cn1c(CNc2cccc(C(=O)NCc3ccncc3Cl)c2)nnc1-c1ccncc1F | 31.9 nM | –
14 | Cn1c(CNc2cccc(C(=O)NC3c4ccccc4CC3O)c2)nnc1-c1ccncn1 (stereo not drawn) [compound 56] | – | IC50 [1]: 7.3 nM
15 | CCc1ccc(CNC(=O)c2cccc(NCc3nnc(-c4ccncn4)n3C)c2)nc1 | 271 nM | –
16 | CN1CCN(Cc2ccccc2CNC(=O)c2cccc(NCc3nnc(-c4ccncn4)n3C)c2)CC1 | 159 nM | –
17 | C[C@H](NC(=O)c1cccc(NCc2nnc(-c3ccncn3)n2C)c1)c1cccnc1 [compound 22] | – | IC50 [1]: 420 nM
18 | Cc1cccc(C(CO)NC(=O)c2cccc(NCc3nnc(-c4ccncn4)n3C)c2)c1 (stereo not drawn) [compound 39] | – | IC50 [1]: 1.1 nM
19 | Cn1c(CNc2cccc(C(=O)NCc3nc4ccccc4[nH]3)c2)nnc1-c1ccncn1 | – | IC50 [3]: 100 nM
20 | Cn1c(CNc2cccc(C(=O)NC(CO)c3ccccc3F)c2)nnc1-c1ccncn1 (stereo not drawn) | – | IC50 [3]: 60 nM
21 | Cn1c(CNc2cccc(C(=O)NCc3ccc(C#N)cc3)c2)nnc1-c1ccncn1 [compound 54] | – | IC50 [1]: 6.3 nM
22 | Cn1c(CNc2cccc(C(=O)NCc3cc(F)ccc3F)c2)nnc1-c1ccncn1 | – | IC50 [3]: 27 nM

Row | SMILES | IC50 [2] | also measured
23 | Cn1c(CNc2cccc(C(=O)NC3(CO)CCOc4ccccc43)c2)nnc1-c1ccncn1 (stereo not drawn) | 283 nM | –
24 | Cc1ccn2c(CNC(=O)c3cccc(NCc4nnc(-c5ccncn5)n4C)c3)cnc2c1 [compound 45] | – | IC50 [1]: 3 nM
25 | Cn1c(CNc2cccc(C(=O)NCc3ccncc3Cl)c2)nnc1-c1ccncn1 [compound 13] | – | IC50 [1]: 9.1 nM
26 | Cn1c(CNc2cccc(C(=O)NCc3ccccc3CN3CCC(O)C3)c2)nnc1-c1ccncn1 (stereo not drawn) | 136 nM | –
27 | Cc1cccnc1CNC(=O)c1cccc(NCc2nnc(-c3ccncc3F)n2C)c1 | 312 nM | –
28 | Cn1c(CNc2cccc(C(=O)NC(CCO)c3ccc(F)cc3)c2)nnc1-c1ccncn1 (stereo not drawn) | – | IC50 [3]: 52 nM
29 | COc1ccc2c(c1)[C@@H](NC(=O)c1cccc(NCc3nnc(-c4ccncn4)n3C)c1)CCO2 | – | IC50 [3]: > 1000 nM
30 | CN(C)C[C@@H](NC(=O)c1cccc(NCc2nnc(-c3ccncn3)n2C)c1)c1ccccc1 | – | IC50 [3]: 210 nM
31 | Cn1c(CNc2cccc(C(=O)NCc3ccccc3OCCN3CCOCC3)c2)nnc1-c1ccncn1 | 145 nM | –
32 | CCOc1ccc(C(CO)NC(=O)c2cccc(NCc3nnc(-c4ccncn4)n3C)c2)cn1 (stereo not drawn) [compound 41] | – | IC50 [1]: 1.8 nM
33 | Cn1c(CNc2cccc(C(=O)NCc3ccc(-n4ccnn4)cc3)c2)nnc1-c1ccncn1 [compound 58] | – | IC50 [1]: 9.5 nM
34 | CN1CCN(S(=O)(=O)c2ccccc2CNC(=O)c2cccc(NCc3nnc(-c4ccncn4)n3C)c2)CC1 | 344 nM | –
35 | CC(C)NS(=O)(=O)Cc1ccccc1CNC(=O)c1cccc(NCc2nnc(-c3ccncn3)n2C)c1 | 69.8 nM | –
36 | COc1cccc(C(C)NC(=O)c2cccc(NCc3nnc(-c4ccncn4)n3C)c2)c1 (stereo not drawn) [compound 48] | – | IC50 [1]: 4.4 nM
37 | Cn1c(CNc2cccc(C(=O)NC3CCOc4cccnc43)c2)nnc1-c1ccncn1 (stereo not drawn) [compound 60] | – | IC50 [1]: 9.6 nM
38 | Cn1c(CNc2cccc(C(=O)NCc3ccc4c(c3)CCN4)c2)nnc1-c1ccncn1 [compound 57] | – | IC50 [1]: 9.4 nM
39 | CNS(=O)(=O)c1cccc(F)c1CNC(=O)c1ccnc(NCc2nnc(-c3ccncn3)n2C)c1 | 15.1 nM | –
40 | Cc1cnc(CNC(=O)c2cccc(NCc3nnc(-c4ccncn4)n3C)c2)cn1 | – | IC50 [3]: 150 nM
41 | Cn1c(CNc2cccc(C(=O)NCc3cccnc3-n3cncn3)c2)nnc1-c1ccncn1 | 119 nM | –
42 | CCCCCOc1ccc2c(c1)[C@H](NC(=O)c1cccc(NCc3nnc(-c4ccncn4)n3C)c1)CCO2 | 732 nM | –
43 | COc1cccc(C(CO)NC(=O)c2cccc(NCc3nnc(-c4ccncn4)n3C)c2)c1 (stereo not drawn) [compound 49] | – | IC50 [1]: 5.4 nM
44 | Cn1c(CNc2cccc(C(=O)NCc3ccc(CO)c(F)c3)c2)nnc1-c1ccncn1 | 103 nM | –

Row | SMILES | IC50 [2] | also measured
45 | C[C@H](NC(=O)c1cccc(NCc2nnc(-c3ccncn3)n2C)c1)c1ccc(Cl)cn1 | 950 nM | –
46 | Cn1c(CNc2cccc(C(=O)NCC3Cc4ccccc4O3)c2)nnc1-c1ccncn1 (stereo not drawn) | 208 nM | –
47 | Cn1c(CNc2cccc(C(=O)NCc3c[nH]cn3)c2)nnc1-c1ccncn1 | – | IC50 [3]: 110 nM
48 | Cn1c(CNc2cccc(C(=O)NC3(c4ncccc4F)CC3)c2)nnc1-c1ccncn1 | 104 nM | –
49 | Cn1c(CNc2cccc(C(=O)NCc3nccnc3O)c2)nnc1-c1ccncn1 | 728 nM | –
50 | Cn1c(CNc2cccc(C(=O)N[C@@H]3COCc4ccccc43)c2)nnc1-c1ccncc1 | – | IC50 [3]: 201 nM
51 | Cc1ncsc1CNC(=O)c1cccc(NCc2nnc(-c3ccncn3)n2C)c1 | – | IC50 [3]: 16 nM
52 | COc1ccc([C@H](C)NC(=O)c2cccc(NCc3nnc(-c4ccncn4)n3C)c2)c(OC)c1 | 310 nM | –
53 | Cn1c(CNc2cc(C(=O)N[C@@H]3COCc4ccccc43)ccn2)nnc1-c1ccncn1 | 18.7 nM | –
54 | COc1cccc(C2(NC(=O)c3cccc(NCc4nnc(-c5ccncn5)n4C)c3)CC2)c1F | – | IC50 [3]: 23 nM
55 | Cc1ccc(CNC(=O)c2cccc(NCc3nnc(-c4ccncn4)n3C)c2)nc1C | 182 nM | –
56 | Cn1c(CNc2cccc(C(=O)NCc3ccccc3S(=O)(=O)N3CCOCC3)c2)nnc1-c1ccncn1 | 52.8 nM | –
57 | COc1ccc(CNC(=O)c2cccc(NCc3nnc(-c4ccncn4)n3C)c2)cc1 | 913 nM | –
58 | Cc1csc(CNC(=O)c2cccc(NCc3nnc(-c4ccncn4)n3C)c2)n1 [drawing 283] | – | IC50 [3]: 100 nM
59 | Cc1ccc2ncc(CNC(=O)c3cccc(NCc4nnc(-c5ccncn5)n4C)c3)n2c1 [compound 44] | – | IC50 [1]: 2.8 nM
60 | Cn1c(CNc2cccc(C(=O)NC3CCCS(=O)(=O)c4ccccc43)c2)nnc1-c1ccncn1 (stereo not drawn) | 194 nM | –
61 | Cn1c(CNc2cccc(C(=O)NCc3cnn(C(C)(C)C)c3)c2)nnc1-c1ccncn1 | 135 nM | –
62 | Cc1cnc(CCNC(=O)c2cccc(NCc3nnc(-c4ccncn4)n3C)c2)c(C)c1 | 432 nM | –
63 | Cc1c[nH]c(=O)c(CNC(=O)c2cccc(NCc3nnc(-c4ccncn4)n3C)c2)c1 | > 1000 nM | –
64 | COC1COc2ccccc2C1NC(=O)c1cccc(NCc2nnc(-c3ccncn3)n2C)c1 (stereo not drawn) | 59.1 nM | –
65 | Cn1c(CNc2cccc(C(=O)NCc3cccc4cccnc34)c2)nnc1-c1ccncn1 [compound 24] | – | IC50 [1]: 61 nM
66 | Cn1c(CNc2cccc(C(=O)NC3(CO)CCc4ccccc43)c2)cnc1-c1ccncn1 (stereo not drawn) | 929 nM | –
